Test results reported in US9969715B2, “Compounds useful for treating cancer” (ABIVAX, priority 2012, dated 2018).

What was measured:
[1] = system: MDA-MB231-luc-D3H2LN cells; experiment: Invasion of MDA-MB231-D3H2LN cells into collagen (example 15 = procedure 2, 48 h drug pre-incubation); format: cell-based; details: concentration giving 50% of the anti-invasive effect of 10 μM Y-27632; 48 h pre-incubation, 24 h with 5% FBS; read-out: MDA: Inhib. of invasion: 0.5 × eff. of 10 μM Y-27632 at (μM) av
Protocol: Effect of Drug Compounds on Invasion of MDA-MB231-D3H2LN Cells into Collagen
Preparation of cells at the bottom of a collagen gel: Cells are suspended in a liquid collagen solution (4° C.), distributed into BSA-coated wells, and then collected at the bottom of the wells by centrifugation. The collagen is then solidified by incubation at 37° C. The BSA coating improves the adhesion of the collagen gel.
Pre-treatment with the compounds to be tested: Concentrated drug solutions are then added on top of the collagen, and cells are pre-incubated for 48 h with the drugs at low serum conditions (0.025% FBS).
Stimulation of invasion: Medium with 5% FBS is then added in order to stimulate invasion of the cells into the collagen gel.
(§1) Viability assay, fixation and staining: Following another 24 h incubation, an MTS assay is performed directly on the cells in the collagen. Then, cells are fixed and nuclei are stained.
Analysis: Finally, plates are analyzed using an automated microscope. Fluorescent beads that have been included into the BSA coating serve to detect the bottom of the wells. Pictures of the stained nuclei are taken at the same level (0 μm) as well as 25 μm and 50 μm above.
Negative control: No drug (just DMSO at equivalent concentration). Positive control: 10 μM Y-27632. To avoid edge effects, cells are added only to the 60 central wells B2-G11; lines A and H receive only collagen without cells (blank for the MTS assay) columns 1 and 12 remain free. Each drug is tested at least in triplicate. The positive and negative controls should be tested in several triplicates at different positions on each plate. Typical plate map (−=negative control, +=positive control, 1-12=12 different test conditions, i. e. different drug compounds or concentrations):
Preparation of 4× concentrated drug solutions in MEM+0.1% FBS+2% Lutrol E-400+0.8% DMSO: Mix each 620 μl MEM+0.1% FBS+2% Lutrol E-400 with each 4 μl DMSO+each 1 μl of the 50 mM compound stock solutions (yielding […] and 0.8% DMSO). If the desired final compound concentration is <5 μM, then further dilute in MEM+0.1% FBS+0.8% DMSO. Negative control: MEM+0.1% FBS+2% Lutrol E-400+0.8% DMSO without any drug. Preparation of the positive control: Mix 4.5 ml MEM+0.1% FBS+2% Lutrol E-400+[…] with 36 μl 5 mM Y-27632 (freshly thawed aliquot) (yielding 40 μM).
add each 33 μl/well of the 4× concentrated drug solutions in MEM+0.1% FBS+2% Lutrol E-400+0.8% DMSO to the corresponding wells (yields 1× concentrated drugs in MEM+0.025% FBS+0.5% Lutrol E-400+0.2% DMSO final)
incubate 48 h at 37° C./5% CO2
incubate 24 h at 37° C./5% CO2
for each well, calculate the mean invasion distance of the counted cells: (25 μm×number of cells at 25 μm+50 μm×number cells at 50 μm)/sum of cells at 0, 25 and 50 μm
invalidate any replicate with a CV≥50% (compound to be re-tested, or assay to be repeated if CV≥50% for the untreated negative control or the compound Y-27632-treated positive control). Y27632 is a selective inhibitor of the Rho-associated protein kinase p160ROCK of the following formula
validate the assay only if the mean invasion distance of the cells treated with 10 μM Y-27632 (positive control) is decreased by ≥40% as compared to the untreated negative control
(§2) Final analysis: Determine the concentration at which a given compound has 50% of the anti-invasive effect of the positive control (10 μM Y-27632). Determine the toxicity (=loss of viability) of the compound under these conditions.
Here, invasion (into collagen) is the concentration of the compound necessary to reach 50% of the inhibition effect compared to 10 μM Y-27632.
Standard operating procedure 2 is exactly the same as the procedure as described in example 15.

[2] = system: human PBMC; experiment: Toxicity assay under normal cell culture conditions (MTS), PBMC; format: cell-based; details: human PBMC, RPMI+10% FBS+IL-2, 72 h incubation, MTS
Protocol: (§3) Toxicity Assays (Under Normal Cell Culture Conditions):
(§4) Compounds were prepared as for the invasion assay, and then added to either MDA-MB231-luc-D3H2LN cells (2000/well) under normal culture conditions (MEM+10% FBS), or human PBMC (75000/well, in RPMI+10% FBS+IL-2) in standard 96-well tissue culture plates. After 72 h incubation, a standard MTS assay was performed according to the manufacturer's instructions (Promega Ref. G3581). Compounds were tested at various concentrations (concentration-response curves) in order to determine the concentrations at which 50% toxicity is obtained.

[3] = system: MDA-MB231-luc-D3H2LN cells; experiment: Toxicity assay under normal cell culture conditions (MTS), MDA cells; format: cell-based, human; details: MDA-MB231-luc-D3H2LN cells, MEM+10% FBS, 72 h incubation, MTS
Protocol: (§5) In order to detect possible toxic effects, all compounds are tested in parallel in a viability assay. The viability assay is performed in parallel on serum-starved cells (as in the invasion assay) vs. cells under normal culture conditions (10% FBS).
as §3, §4

[4] = molecular target: T1, hERG channel (Homo sapiens, UniProt Q12809); experiment: hERG channel inhibition (electrophysiology, hERG-transfected HEK293 cells); format: cell-based
T1 construct: host or cells: HEK293
Protocol: Performed by Porsolt & Partners (Z. A. de Glatigné, 53940 Le Genest-Saint-Isle, France). Briefly, each 3 hERG-transfected HEK293 cells were superfused with the compounds at 1 and 10 μM, and the hERG channel current was measured by electrophysiology, as described by Crumb et al., J. Pharmacol. Exp. Ther. 2000.

[5] = system: MDA-MB231-luc-D3H2LN cells; experiment: Viability (MTS) assay on the cells in collagen under invasion assay conditions; format: cell-based, human; details: loss of viability at the concentration giving 0.5 × effect of 10 μM Y-27632, invasion assay conditions
Protocol: as §1, §5
Viability Assay: MTS Assay:
add each 33 μl/well of the MTS reagent, incubate 3-4 h at 37° C./5% CO2
read absorbance at 490 nm (proportional to the viability)
calculate the background-corrected signals by subtracting the means of the background signals in absence of cells from the corresponding signals in presence of cells
normalize the background-corrected signals with respect to the mean signal of the negative controls (no drug) (viabilities are thus expressed in “% of control”)
as §2

T1 sequence (Q12809 whole entry): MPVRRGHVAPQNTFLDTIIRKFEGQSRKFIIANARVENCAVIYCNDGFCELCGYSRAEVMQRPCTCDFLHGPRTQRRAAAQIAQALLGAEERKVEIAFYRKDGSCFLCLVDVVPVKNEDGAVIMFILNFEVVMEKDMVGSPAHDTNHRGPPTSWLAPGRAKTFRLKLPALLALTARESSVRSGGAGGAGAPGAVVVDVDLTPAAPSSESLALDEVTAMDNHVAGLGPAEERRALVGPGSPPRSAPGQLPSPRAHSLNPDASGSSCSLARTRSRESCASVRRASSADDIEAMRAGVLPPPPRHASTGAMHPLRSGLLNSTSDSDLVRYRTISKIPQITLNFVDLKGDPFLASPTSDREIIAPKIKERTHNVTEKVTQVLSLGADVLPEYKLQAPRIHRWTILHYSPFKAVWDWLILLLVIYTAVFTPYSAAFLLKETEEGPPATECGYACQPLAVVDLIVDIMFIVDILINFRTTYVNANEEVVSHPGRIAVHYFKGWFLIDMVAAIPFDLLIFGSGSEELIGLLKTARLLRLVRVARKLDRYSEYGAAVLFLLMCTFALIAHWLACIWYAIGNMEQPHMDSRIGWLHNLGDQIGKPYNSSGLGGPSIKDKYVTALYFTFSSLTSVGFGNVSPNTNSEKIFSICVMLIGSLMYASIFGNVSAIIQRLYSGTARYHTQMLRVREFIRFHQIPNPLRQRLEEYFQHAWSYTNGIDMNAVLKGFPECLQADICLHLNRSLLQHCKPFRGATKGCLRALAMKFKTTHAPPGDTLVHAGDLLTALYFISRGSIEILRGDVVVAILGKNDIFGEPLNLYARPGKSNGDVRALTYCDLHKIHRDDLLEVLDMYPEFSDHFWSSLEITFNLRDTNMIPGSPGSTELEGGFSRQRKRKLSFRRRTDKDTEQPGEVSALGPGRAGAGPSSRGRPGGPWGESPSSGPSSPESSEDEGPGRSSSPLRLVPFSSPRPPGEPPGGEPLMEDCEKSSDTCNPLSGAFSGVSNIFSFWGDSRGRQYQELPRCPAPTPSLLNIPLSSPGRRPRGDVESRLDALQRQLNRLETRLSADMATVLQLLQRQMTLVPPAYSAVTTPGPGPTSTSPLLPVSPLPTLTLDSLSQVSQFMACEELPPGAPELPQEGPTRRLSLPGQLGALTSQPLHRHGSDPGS

With `CCN(CC)CCCNC(=O)c1cccc(Nc2cccc(C(=O)Nc3ccccn3)c2)c1` [Compound 11, N-(3-(diethylamino)propyl)-3-((3-(pyridin-2-ylcarbamoyl)phenyl)amino)benzamide] the IC50 [1] was greater than 2 µM, the “PBMC tox.: 50% tox. at (μM) av” value [2] was 47 µM and the “MDA tox: 50% tox. at (μM) av” value [3] was 44 µM. The “% hERG inhibition in transfected HEK (n = 3) at 1 μM av” value ([4]; 1 μM compound) was 64% and the “% hERG inhibition in transfected HEK (n = 3) at 10 μM av” value ([4]; 10 μM compound) was 87%.
In the case of `CCN(CC)CCCNS(=O)(=O)c1cccc(Nc2cccc(C(=O)Nc3ccncn3)c2)c1` [Compound 26, 3-((3-(N-(3-(diethylamino)propyl)sulfamoyl)phenyl)amino)-N-(pyrimidin-4-yl)benzamide], the IC50 [1] is reported as 3.6 µM, the “(+ MDA tox. under these cond.) % tox” value [5] is reported as less than 10% and the “PBMC tox.: 50% tox. at (μM) av” value [2] is reported as 85 µM. For the same compound, the “MDA tox: 50% tox. at (μM) av” value [3] was 73 µM.
`CN1CCN(CCCNC(=O)c2cccc(Nc3cccc(C(=O)N(C)c4ccncc4)c3)c2)CC1` [Compound 20, N-methyl-3-((3-((3-(4-methylpiperazin-1-yl)propyl)carbamoyl)phenyl)amino)-N-(pyridin-4-yl)benzamide] was tested, and the IC50 [1] was 0.85 µM, the “(+ MDA tox. under these cond.) % tox” value [5] was less than 10% and the “PBMC tox.: 50% tox. at (μM) av” value [2] was greater than 100 µM. For the same compound, the “MDA tox: 50% tox. at (μM) av” value [3] was greater than 100 µM.
`O=C(Nc1ccncc1)c1ccc(Nc2cccc(S(=O)(=O)NCCCN3CCOCC3)c2)cc1` [Compound 15, 4-((3-(N-(3-morpholinopropyl)sulfamoyl)phenyl)amino)-N-(pyridin-4-yl)benzamide] was tested, and the IC50 [1] was 5 µM, the “(+ MDA tox. under these cond.) % tox” value [5] was less than 10% and the “PBMC tox.: 50% tox. at (μM) av” value [2] was 36 µM. For the same compound, the “MDA tox: 50% tox. at (μM) av” value [3] was >>44 μM.
For `CN1CCN(CCCNC(=O)c2cccc(Nc3cccc(C(=O)Nc4ccncn4)c3)c2)CC1` [Compound 31, N-(3-(4-methylpiperazin-1-yl)propyl)-3-((3-(pyrimidin-4-ylcarbamoyl)phenyl)amino)benzamide], the IC50 [1] was 0.1 µM, the “(+ MDA tox. under these cond.) % tox” value [5] was less than 10% and the “PBMC tox.: 50% tox. at (μM) av” value [2] was 92 µM. For the same compound, the “MDA tox: 50% tox. at (μM) av” value [3] was 95 µM.
In the case of `CN1CCN(CCCNC(=O)c2cccc(Nc3cc(C(=O)Nc4ccncc4)ccn3)c2)CC1` [Compound 51, 2-((3-((3-(4-methylpiperazin-1-yl)propyl)carbamoyl)phenyl)amino)-N-(pyridin-4-yl)isonicotinamide], the IC50 [1] is reported as 0.3 µM, the “(+ MDA tox. under these cond.) % tox” value [5] is reported as less than 10% and the “PBMC tox.: 50% tox. at (μM) av” value [2] is reported as greater than 100 µM. The “MDA tox: 50% tox. at (μM) av” value [3] was no less than 100 µM.
For `O=C(NCCCN1CCCCC1)c1cccc(Nc2cccc(C(=O)Nc3ccncc3)c2)c1` [Compound 7, N-(3-(piperidin-1-yl)propyl)-3-((3-(pyridin-4-ylcarbamoyl)phenyl)amino)benzamide], the IC50 [1] was 0.11 µM, the “(+ MDA tox. under these cond.) % tox” value [5] was less than 10% and the “PBMC tox.: 50% tox. at (μM) av” value [2] was 38 µM. The “MDA tox: 50% tox. at (μM) av” value [3] was 25 µM.
`CCN(CC)CCCNC(=O)c1cccc(Nc2cc(C(=O)Nc3ccncc3)ccn2)n1` [Compound 43, N-(3-(diethylamino)propyl)-6-((4-(pyridin-4-ylcarbamoyl)pyridin-2-yl)amino)picolinamide] was tested, and the IC50 [1] was 3.25 µM, the “(+ MDA tox. under these cond.) % tox” value [5] was less than 10% and the “PBMC tox.: 50% tox. at (μM) av” value [2] was greater than 100 µM. For the same compound, the “MDA tox: 50% tox. at (μM) av” value [3] was greater than 100 µM.
With `CN(C(=O)c1cccc(Nc2cccc(C(=O)NCCCN3CCOCC3)c2)c1)c1ccncc1` [Compound 22, N-methyl-3-((3-((3-morpholinopropyl)carbamoyl)phenyl)amino)-N-(pyridin-4-yl)benzamide] the IC50 [1] was 2.25 µM, the “(+ MDA tox. under these cond.) % tox” value [5] was less than 10% and the “PBMC tox.: 50% tox. at (μM) av” value [2] was greater than 100 µM. The “MDA tox: 50% tox. at (μM) av” value [3] was greater than 100 µM.
For `O=C(NCCCN1CCCC1)c1cccc(Nc2cccc(C(=O)Nc3ccncn3)c2)c1` [Compound 28, N-(pyrimidin-4-yl)-3-((3-((3-(pyrrolidin-1-yl)propyl)carbamoyl)phenyl)amino)benzamide], the IC50 [1] was 0.26 µM, the “(+ MDA tox. under these cond.) % tox” value [5] was less than 10% and the “PBMC tox.: 50% tox. at (μM) av” value [2] was 49 µM. For the same compound, the “MDA tox: 50% tox. at (μM) av” value [3] was 35 µM.
With `O=C(NCCCN1CCOCC1)c1cccc(Nc2cc(C(=O)Nc3ccncc3)ccn2)c1` [Compound 48, 2-((3-((3-morpholinopropyl)carbamoyl)phenyl)amino)-N-(pyridin-4-yl) isonicotinamide] the IC50 [1] was 0.75 µM, the “(+ MDA tox. under these cond.) % tox” value [5] was less than 10% and the “PBMC tox.: 50% tox. at (μM) av” value [2] was 26 µM. The “MDA tox: 50% tox. at (μM) av” value [3] was 80 µM.
With `CN1CCN(CCCNC(=O)c2cccc(Nc3cccc(C(=O)Nc4ccncc4)c3)c2)CC1` [Compound 6, N-(3-(4-methylpiperazin-1-yl)propyl)-3-((3-(pyridin-4-ylcarbamoyl)phenyl)amino)benzamide] the IC50 [1] was 0.16 µM, the “(+ MDA tox. under these cond.) % tox” value [5] was less than 10% and the “PBMC tox.: 50% tox. at (μM) av” value [2] was 100 µM. For the same compound, the “MDA tox: 50% tox. at (μM) av” value [3] was 58 µM.
For `CCN(CC)CCCNC(=O)c1ccnc(Nc2cccc(C(=O)N(C)c3ccncc3)c2)c1` [Compound 38, N-(3-(diethylamino)propyl)-2-((3-(methyl(pyridin-4-yl)carbamoyl)phenyl)amino)isonicotinamide], the IC50 [1] was 3.75 µM, the “(+ MDA tox. under these cond.) % tox” value [5] was less than 10% and the “PBMC tox.: 50% tox. at (μM) av” value [2] was >>100 μM. For the same compound, the “MDA tox: 50% tox. at (μM) av” value [3] was >>100 μM.
